Tests used:
[1] = biological target: Human α2δ-1 subunit of Cav2.2 calcium channel (Homo sapiens, UniProt P54289); test: Human α2δ-1 subunit of Cav2.2 calcium channel assay ([3H]-gabapentin binding); details: binding to the α2δ-1 subunit of voltage-gated calcium channels, expressed as Ki class; + also covers inhibition between 1% and 50%
Summary of the method: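 Affinity (Ki, five concentrations) or % inhibition at 1 or 10 μM, from displacement of 15 nM [3H]-gabapentin on human α2δ-1 membranes. Incubation 60 min, 27° C., Hepes-KOH 10 mM pH 7.4; 10 μM pregabalin defined non-specific binding; bound radioactivity counted after GF/C filtration.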

Human σ1 receptor = biological target: T1, Human σ1 receptor (Homo sapiens, UniProt Q99720); test: Human σ1 receptor radioligand assay ([3H](+)-pentazocine binding); details: binding to the σ1 receptor, expressed as Ki class; + also covers inhibition between 1% and 50%
T1 construct: expressed in transfected cells; host or cells: HEK-293
T1 sequence (Q99720 whole entry): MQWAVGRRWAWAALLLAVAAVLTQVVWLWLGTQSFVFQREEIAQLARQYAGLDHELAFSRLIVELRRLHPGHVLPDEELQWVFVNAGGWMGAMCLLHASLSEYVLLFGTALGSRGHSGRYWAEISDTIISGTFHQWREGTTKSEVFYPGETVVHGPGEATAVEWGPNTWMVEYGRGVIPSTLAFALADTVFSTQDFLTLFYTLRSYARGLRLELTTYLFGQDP
Summary of the method: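 Ki was derived from five test concentrations, or % inhibition was measured at a single 1 or 10 μM dose, against 5 nM [3H](+)-pentazocine. Incubation was 120 min at 37° C in 50 mM Tris-HCl pH 8 with 7 μg HEK-293 membranes, and 10 μM haloperidol set non-specific binding. Bound radioactivity was counted after filtration.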

Chain of Human α2δ-1 subunit of Cav2.2 calcium channel (P54289 25-1103): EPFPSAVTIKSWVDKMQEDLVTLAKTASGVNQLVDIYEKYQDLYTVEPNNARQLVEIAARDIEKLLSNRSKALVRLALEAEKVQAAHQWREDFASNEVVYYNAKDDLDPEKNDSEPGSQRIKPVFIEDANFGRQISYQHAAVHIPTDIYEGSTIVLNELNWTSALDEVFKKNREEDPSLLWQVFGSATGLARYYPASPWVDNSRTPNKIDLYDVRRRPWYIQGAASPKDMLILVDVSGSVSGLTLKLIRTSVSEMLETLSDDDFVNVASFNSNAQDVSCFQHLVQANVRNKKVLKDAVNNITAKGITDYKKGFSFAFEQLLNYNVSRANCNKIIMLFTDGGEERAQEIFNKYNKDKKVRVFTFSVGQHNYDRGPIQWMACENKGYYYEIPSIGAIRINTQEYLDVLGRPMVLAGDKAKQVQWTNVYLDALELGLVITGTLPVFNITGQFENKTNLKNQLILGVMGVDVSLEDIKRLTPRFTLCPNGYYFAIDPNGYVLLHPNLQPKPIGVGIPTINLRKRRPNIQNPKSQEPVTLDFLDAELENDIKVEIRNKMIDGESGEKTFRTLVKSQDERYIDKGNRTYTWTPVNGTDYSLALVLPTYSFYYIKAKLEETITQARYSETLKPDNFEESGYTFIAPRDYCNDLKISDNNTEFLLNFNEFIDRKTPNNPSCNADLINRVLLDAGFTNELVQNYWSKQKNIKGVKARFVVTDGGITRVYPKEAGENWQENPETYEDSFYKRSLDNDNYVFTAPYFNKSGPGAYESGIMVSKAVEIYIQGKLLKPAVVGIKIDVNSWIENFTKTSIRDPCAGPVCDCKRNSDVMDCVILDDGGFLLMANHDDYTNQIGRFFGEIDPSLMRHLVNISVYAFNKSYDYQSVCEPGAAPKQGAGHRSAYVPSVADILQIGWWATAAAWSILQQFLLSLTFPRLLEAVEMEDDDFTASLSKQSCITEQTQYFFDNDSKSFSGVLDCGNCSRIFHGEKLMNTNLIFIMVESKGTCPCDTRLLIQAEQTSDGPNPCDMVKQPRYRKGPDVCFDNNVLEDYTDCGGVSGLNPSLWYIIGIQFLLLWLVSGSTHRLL

Row | SMILES | Ki [1] [µM] | Ki (Human σ1 receptor) [µM]
1 | CCC[C@H](c1nc2ccc(F)cc2c(=O)n1C)N1CCCN(CC)CC1 [Example 217, (R)-2-(1-(4-ethyl-1,4-diazepan-1-yl)butyl)-6-fluoro-3-methylquinazolin-4(3H)-one] | > 5 | < 0.5
2 | CCC[C@H](c1nc2ccc(F)cc2c(=O)n1CC1CC1)N1CCCN(CC)CC1 [Example 218, (R)-3-(cyclopropylmethyl)-2-(1-(4-ethyl-1,4-diazepan-1-yl)butyl)-6-fluoroquinazolin-4(3H)-one] | < 0.5 | < 0.5
3 | CCC[C@H](c1nc2ccc(F)cc2c(=O)n1CC1CC1)N1CCCN(C)CC1 [Example 219, (R)-3-(cyclopropylmethyl)-6-fluoro-2-(1-(4-methyl-1,4-diazepan-1-yl)butyl)quinazolin-4(3H)-one] | < 0.5 | < 0.5
4 | CCC[C@H](c1nc2cc(F)c(OC)cc2c(=O)n1CC)N1CCCN(C)CC1 [Example 220, (R)-3-ethyl-7-fluoro-6-methoxy-2-(1-(4-methyl-1,4-diazepan-1-yl)butyl)quinazolin-4(3H)-one] | < 0.5 | > 1
5 | CCC[C@H](c1nc2ccc(F)cc2c(=O)n1CCC(C)C)N1CCCN(CC)CC1 [Example 221, (R)-2-(1-(4-ethyl-1,4-diazepan-1-yl)butyl)-6-fluoro-3-isopentylquinazolin-4(3H)-one] | > 5 | < 0.5
6 | CCC[C@H](c1nc2ccc(F)cc2c(=O)n1C(C)C)N1CCCN(C)CC1 [Example 222, (R)-6-fluoro-3-isopropyl-2-(1-(4-methyl-1,4-diazepan-1-yl)butyl)quinazolin-4(3H)-one] | > 5 | 0.5 to 1
7 | CCC[C@H](c1nc2ccc(F)cc2c(=O)n1C(C)C)N1CCCN(CC)CC1 [Example 223, (R)-2-(1-(4-ethyl-1,4-diazepan-1-yl)butyl)-6-fluoro-3-isopropylquinazolin-4(3H)-one] | > 5 | < 0.5
8 | CCCCn1c([C@@H](CCC)N2CCCN(C)CC2)nc2ccc(F)cc2c1=O [Example 224, (R)-3-butyl-6-fluoro-2-(1-(4-methyl-1,4-diazepan-1-yl)butyl)quinazolin-4(3H)-one] | < 0.5 | < 0.5
9 | CCCCn1c([C@@H](CCC)N2CCCN(CC)CC2)nc2ccc(F)cc2c1=O [Example 225, (R)-3-butyl-2-(1-(4-ethyl-1,4-diazepan-1-yl)butyl)-6-fluoroquinazolin-4(3H)-one] | < 0.5 | < 0.5
10 | CCC[C@H](c1nc2ccc(F)cc2c(=O)n1CCC(C)C)N1CCCN(C)CC1 [Example 226, (R)-6-fluoro-3-isopentyl-2-(1-(4-methyl-1,4-diazepan-1-yl)butyl)quinazolin-4(3H)-one] | > 5 | < 0.5
11 | CCC[C@H](c1nc2ccc(F)cc2c(=O)n1Cc1ccoc1)N1CCCN(C)CC1 [Example 227] | < 0.5 | < 0.5
12 | CCC[C@H](c1nc2ccc(F)cc2c(=O)n1Cc1ccoc1)N1CCCN(CC)CC1 [Example 228, (R)-2-(1-(4-ethyl-1,4-diazepan-1-yl)butyl)-6-fluoro-3-(furan-3-ylmethyl)quinazolin-4(3H)-one] | 0.5 to 5 | < 0.5
13 | CCC[C@H](c1nc2cc(OC)c(F)cc2c(=O)n1CC)N1CCCN(C)CC1 [Example 230, (R)-3-ethyl-6-fluoro-7-methoxy-2-(1-(4-methyl-1,4-diazepan-1-yl)butyl)quinazolin-4(3H)-one] | < 0.5 | 0.5 to 1
14 | CCC[C@H](c1nc2cc(OC)c(F)cc2c(=O)n1CC)N1CCCN(CC)CC1 [Example 231, (R)-3-ethyl-2-(1-(4-ethyl-1,4-diazepan-1-yl)butyl)-6-fluoro-7-methoxyquinazolin-4(3H)-one] | < 0.5 | 0.5 to 1
15 | CCC[C@H](c1nc2cc(F)c(F)cc2c(=O)n1CC)N1CCCN(C)CC1 [Example 232, (R)-3-ethyl-6,7-difluoro-2-(1-(4-methyl-1,4-diazepan-1-yl)butyl)quinazolin-4(3H)-one] | < 0.5 | < 0.5
16 | CCC[C@H](c1nc2ccc(F)c(F)c2c(=O)n1CC)N1CCCN(C)CC1 [Example 233, (R)-3-ethyl-5,6-difluoro-2-(1-(4-methyl-1,4-diazepan-1-yl)butyl)quinazolin-4(3H)-one] | < 0.5 | < 0.5
17 | CCC[C@H](c1nc2c(F)cc(Cl)cc2c(=O)n1CC)N1CCCN(C)CC1 [Example 234, (R)-6-chloro-3-ethyl-8-fluoro-2-(1-(4-methyl-1,4-diazepan-1-yl)butyl)quinazolin-4(3H)-one] | < 0.5 | 0.5 to 1

Row | SMILES | Ki [1] [µM] | Ki (Human σ1 receptor) [µM]
18 | CCC[C@H](c1nc2ccc(F)cc2c(=O)n1CC)N1CCN[C@H](C)CC1 [Example 235, 3-ethyl-6-fluoro-2-((R)-1-((R)-5-methyl-1,4-diazepan-1-yl)butyl)quinazolin-4(3H)-one] | < 0.5 | > 1
19 | CCC[C@H](c1nc2ccc(F)cc2c(=O)n1CC)N1CCN[C@@H](C)CC1 [Example 236, 3-ethyl-6-fluoro-2-((R)-1-((S)-5-methyl-1,4-diazepan-1-yl)butyl)quinazolin-4(3H)-one] | < 0.5 | < 0.5
20 | CCC[C@H](c1nc2cc(F)c(OC)cc2c(=O)n1CC)N1CCN(C)C[C@@H](C)C1 [Example 237, 2-((R)-1-((R)-4,6-dimethyl-1,4-diazepan-1-yl)butyl)-3-ethyl-7-fluoro-6-methoxyquinazolin-4(3H)-one] | < 0.5 | > 1
21 | CCC[C@H](c1nc2cc(F)c(OC)cc2c(=O)n1CC)N1CCN(C)C[C@H](C)C1 [Example 238, 2-((R)-1-((S)-4,6-dimethyl-1,4-diazepan-1-yl)butyl)-3-ethyl-7-fluoro-6-methoxyquinazolin-4(3H)-one] | < 0.5 | 0.5 to 1
22 | CCC[C@H](c1nc2ccc(F)c(F)c2c(=O)n1CC)N1CCN[C@H](C)CC1 [Example 239, 3-ethyl-5,6-difluoro-2-((R)-1-((R)-5-methyl-1,4-diazepan-1-yl)butyl)quinazolin-4(3H)-one] | > 5 | > 1
23 | CCC[C@H](c1nc2ccc(F)c(F)c2c(=O)n1CC)N1CCN[C@@H](C)CC1 [Example 240, 3-ethyl-5,6-difluoro-2-((R)-1-((S)-5-methyl-1,4-diazepan-1-yl)butyl)quinazolin-4(3H)-one] | < 0.5 | < 0.5
24 | CCC[C@H](c1nc2cc(F)c(F)cc2c(=O)n1CC)N1CCN[C@H](C)CC1 [Example 241, 3-ethyl-6,7-difluoro-2-((R)-1-((R)-5-methyl-1,4-diazepan-1-yl)butyl)quinazolin-4(3H)-one] | < 0.5 | 0.5 to 1
25 | CCC[C@H](c1nc2cc(F)c(F)cc2c(=O)n1CC)N1CCN[C@@H](C)CC1 [Example 242, 3-ethyl-6,7-difluoro-2-((R)-1-((S)-5-methyl-1,4-diazepan-1-yl)butyl)quinazolin-4(3H)-one] | < 0.5 | < 0.5
26 | CCC[C@H](c1nc2cc(F)c(OC)cc2c(=O)n1CC)N1CCNC[C@@H](C)C1 [Example 243, 3-ethyl-7-fluroo-6-methoxy-2-((R)-1-((R)-6-methyl-1,4-diazepan-1-yl)butyl)quinazolin-4(3H)-one] | < 0.5 | > 1
27 | CCC[C@H](c1nc2cc(F)c(OC)cc2c(=O)n1CC)N1CCNC[C@H](C)C1 [Example 244, 3-ethyl-7-fluoro-6-methoxy-2-((R)-1-((S)-6-methyl-1,4-diazepan-1-yl)butyl)quinazolin-4(3H)-one] | 0.5 to 5 | > 1
28 | CCC[C@H](c1nc2ccc(Cl)cc2c(=O)n1C)N1CCN[C@H](C)CC1 [Example 245, 6-chloro-3-methyl-2-((R)-1-((R)-5-methyl-1,4-diazepan-1-yl)butyl)quinazolin-4(3H)-one] | > 5 | 0.5 to 1
29 | CCC[C@H](c1nc2ccc(Cl)cc2c(=O)n1C)N1CCN[C@@H](C)CC1 [Example 246, 6-chloro-3-methyl-2-((R)-1-((S)-5-methyl-1,4-diazepan-1-yl)butyl)quinazolin-4(3H)-one] | 0.5 to 5 | < 0.5
30 | CCC[C@H](c1nc2c(F)cc(F)cc2c(=O)n1CC)N1CCCN(C)CC1 [Example 247, (R)-3-ethyl-6,8-difluoro-2-(1-(4-methyl-1,4-diazepan-1-yl)butyl)quinazolin-4(3H)-one] | < 0.5 | 0.5 to 1
31 | CCC[C@H](c1nc2c(F)cccc2c(=O)n1CC)N1CCCN(C)CC1 [Example 248, (R)-3-ethyl-8-fluoro-2-(1-(4-methyl-1,4-diazepan-1-yl)butyl)quinazolin-4(3H)-one] | < 0.5 | > 1
32 | CCC[C@H](c1nc2ccc(OC(F)(F)F)cc2c(=O)n1CC)N1CCCN(C)CC1 [Example 249, (R)-3-ethyl-2-(1-(4-methyl-1,4-diazepan-1-yl)butyl)-6-(trifluoromethoxy)quinazolin-4(3H)-one] | < 0.5 | 0.5 to 1
33 | CCC[C@H](c1nc2c(F)cc(F)cc2c(=O)n1CC)N1CCN[C@H](C)CC1 [Example 250, 3-ethyl-6,8-difluoro-2-((R)-1-((R)-5-methyl-1,4-diazepan-1-yl)butyl)quinazolin-4(3H)-one] | > 5 | > 1
34 | CCC[C@H](c1nc2c(F)cc(F)cc2c(=O)n1CC)N1CCN[C@@H](C)CC1 [Example 251, 3-ethyl-6,8-difluoro-2-((R)-1-((S)-5-methyl-1,4-diazepan-1-yl)butyl)quinazolin-4(3H)-one] | 0.5 to 5 | < 0.5

From patent US12479830B2, “Homopiperazinyl and homopiperidinyl quinazolin-4(3H)-one derivatives having multimodal activity against pain” (ESTEVE PHARMACEUTICALS, S.A., priority 2019, dated 2025)
